Experimental data: patent US20070071686A1, “Liquid preparation containing tobramycin” (Pari GmbH, priority 2003, published 2007)

Assay: Physicochemical characterisation of tobramycin solutions (pH, osmolality, dynamic viscosity, surface tension)
Method: Thus, aqueous solutions of tobramycin with a pH of 6.0 to 6.5 have a 50% greater viscosity (about 2.9 mPa·s) at a concentration of active agent of 180 mg/ml compared to a solution with 100 mg/ml (about 1.8 mPa·s). […] Under standard conditions, the preparations according to the present invention have a viscosity of about 1.4 to 2.3 mPa·s, and preferably a viscosity in the range of about 1.6 to 2.0 mPa·s. A viscosity of about 1.8 mPa·s is most preferred.
11.08 g of tobramycin, 5.41 g of sulfuric acid (96%), 0.2 g of sodium chloride and 90.95 g of water for injection are used as starting materials. All steps are carried out under aseptic conditions and under nitrogen gas. The water is provided first, to which the sulfuric acid is added. Then sodium chloride and the active agent are added one after the other. The mixture is stirred until complete dissolution of all solid components as determined by visual control. This yields about 100 ml of a solution which has a pH of about 6.0, an osmolality of about 0.22 Osmol/l, a dynamic viscosity of about 1.9 mPa·s and a surface tension of about 71 mN/m. This solution is filtered to sterility and filled into an infusion bottle with a volume of 100 ml. This bottle is tightly closed with a pierceable elastomer stopper and secured with an aluminium cap.
10.88 g of tobramycin, 5.41 g of sulfuric acid (96%), 0.2 g sodium chloride, 0.1 g Tween® 80 and 90.95 g of water for injection are used as starting materials. All steps take place under aseptic conditions and nitrogen gas. The water is provided first to which the sulfuric acid is added. Subsequently, tobramycin is added and dissolved at room temperature. Sodium chloride and Tween® are added to this solution. The mixture is stirred until a clear solution is formed. This yields about 100 ml of a solution which has a pH of about 6.2, an osmolality of about 0.22 Osmol/l, a dynamic viscosity of about 1.9 mPa·s and a surface tension of about 43 mN/m. The solution is filtered to sterility and filled aseptically into single dose containers of polypropylene at 2 ml each. […]

With `NC[C@H]1O[C@H](O[C@H]2[C@H](O)[C@@H](O[C@H]3O[C@H](CO)[C@@H](O)[C@H](N)[C@H]3O)[C@H](N)C[C@@H]2N)[C@H](N)C[C@@H]1O` [tobramycin, O-3-amino-3-desoxy-α-D-glucopyranosyl(1→4)-O-[2,6-diamino-2,3,6-tridesoxy-α-D-ribo-hexopyranosyl-(1→6)]-2-deoxystreptamine] the viscosity (aqueous solution, pH 6.0 to 6.5, 100 mg/ml) was “about 1.8 mPa·s”, the viscosity (aqueous solution, pH 6.0 to 6.5, 180 mg/ml) was “about 2.9 mPa·s” and the viscosity (comparable aqueous solution, 120 mg/ml) was “about 2.1 mPa·s”.
